This assay concerns Saccharomycetes Cerevisiae (Fleishmann's Bakers yeast). The assay is described as follows: Saccharomycetes Cerevisiae yeast growth suppression, turbidity of broth suspension. The assay is classed as cell-based. The settings on record: for Turbidity (NTU) OD (To) / Turbidity (NTU) OD (T1 hr) / Turbidity (NTU) OD (T18) / Turbidity (NTU) OD (T24) / Turbidity (NTU) OD (T48): Table 3; for Turbidity (NTU) OD (To): 1 ml solutions added, time zero; for Turbidity (NTU) OD (T1 hr): 1 hour; for Turbidity (NTU) OD (T18): 18 hours; for Turbidity (NTU) OD (T24): 24 hours; for Turbidity (NTU) OD (T48): 48 hours; for Change in Turbidity from T0 (delta NTU) OD (T1 hr) / Change in Turbidity from T0 (delta NTU) OD (T18) / Change in Turbidity from T0 (delta NTU) OD (T24) / Change in Turbidity from T0 (delta NTU) OD (T48): Table 3A; for Change in Turbidity from T0 (delta NTU) OD (T1 hr): 1 hour minus time zero; for Change in Turbidity from T0 (delta NTU) OD (T18): 18 hours minus time zero; for Change in Turbidity from T0 (delta NTU) OD (T24): 24 hours minus time zero; for Change in Turbidity from T0 (delta NTU) OD (T48): 48 hours minus time zero. How it is done: Saccharomycetes Cerevisiae was selected as a test organism as it is generally accepted in the industry as an indicator or surrogate organism for a wide variety of fungi. In each of these experiments, the same general procedure was followed unless otherwise indicated.
Experimental Detail: A growth medium was prepared by adding 10 grams of nutrient medium (Difco Sabouraud dextrose broth from BD of Franklin Lakes, N.J., USA) to 300 ml of distilled water. Fleishmann's Bakers yeast was then added to the growth medium while mixing using a magnetic stirrer until a uniform dispersion was obtained having an initial turbidity of between about 50 and 100 NTU as measured using a HF Instruments DRT 100B Turbidity Meter. Once the appropriate dispersion was obtained, 20 ml aliquots were then dispensed, with continued mixing, into 40 ml borosilicate glass vials with Teflon lined caps (VWR International Cat. No. 15900-004). The system/component to be evaluated was then added to the vial and intimately shaken to ensure a good, substantially homogeneous mixture. The turbidity of each mixture was then determined and the vial transferred to an incubator at 30° C. Each vial was periodically removed from the incubator and the mixture in the vials assessed for turbidity: the specific timing for such evaluation was as set forth in the discussion of the experiments and the accompanying tables.
In each experiment, unless otherwise specified, a 2 ml aqueous solution containing the specified bioactive system or component thereof was added to the 20 ml yeast suspension and mixed thoroughly. Typically the surfactants were added separately in a concentrated solution in water; however, the volume added was negligible: a fraction of an ml. For convenience in understanding efficacy levels, the amounts or concentrations of the various components presented in each of the following tables and experiments are of the diluted material in the test vial: not of the concentrate added to the test vial. Furthermore, the concentrations presented are on the basis of a 20 ml total volume, not the actual 22+ ml volume. Multiplying each of the listed concentrations by 0.9 (or 0.95 with those compositions using 1 ml aqueous solutions) will provide a more accurate assessment of the concentrations of the various components evaluated, i.e., a 5 ppm silver concentration is actually closer to 4.5 ppm. Finally, for those vials to which no bioactive system or component thereof was added (the controls) or which only contained the surfactants, 2 ml of additional growth medium was added to ensure relative equivalent dilutions of the yeast.
In the tables below, the results are presented as the actual turbidity readings (NTU) with a sub-table presenting the change or delta in NTU values. Given the nature of the system, changes in turbidity are reflective of the relative performance/bioefficacy of the bioactive systems and their components.

Consider `O=C(O)CC(O)(CC(=O)O)C(=O)O` [Example 50, citric acid], for which the “Turbidity (NTU) OD (To)” value is 38 NTU, the “Turbidity (NTU) OD (T1 hr)” value amounted to 44 NTU, the “Turbidity (NTU) OD (T18)” value is reported as 780 NTU and the “Turbidity (NTU) OD (T24)” value is recorded as 864 NTU. Besides, the “Turbidity (NTU) OD (T48)” value came to 852 NTU, the “Change in Turbidity from T0 (delta NTU) OD (T1 hr)” value (“Change … (delta NTU) OD (T1 hr)” below) came to 6 delta NTU, the “Change in Turbidity from T0 (delta NTU) OD (T18)” value (“Change … (delta NTU) OD (T18)” for short) came to 742 delta NTU and the “Change in Turbidity from T0 (delta NTU) OD (T24)” value (“Change … (delta NTU) OD (T24)” below) is reported as 826 delta NTU. Moreover, the “Change in Turbidity from T0 (delta NTU) OD (T48)” value (shortened to “Change … (delta NTU) OD (T48)”) is 814 delta NTU.
With `O=C(O)CC(O)(CC(=O)O)C(=O)O` [Example 49, citric acid], the “Turbidity (NTU) OD (To)” value was 42 NTU, the “Turbidity (NTU) OD (T1 hr)” value stood at 46 NTU, the “Turbidity (NTU) OD (T18)” value came to 835 NTU and the “Turbidity (NTU) OD (T24)” value was 920 NTU. Also, the “Turbidity (NTU) OD (T48)” value was found to be 878 NTU, the “Change … (delta NTU) OD (T1 hr)” value stood at 4 delta NTU, the “Change … (delta NTU) OD (T18)” value came to 793 delta NTU and the “Change … (delta NTU) OD (T24)” value was found to be 878 delta NTU. Besides, the “Change … (delta NTU) OD (T48)” value came out at 836 delta NTU.
As to `CCCCCCCCCCCCOS(=O)(=O)[O-].[Na+]` [Example 45], where the note is “sulfate”, the “Turbidity (NTU) OD (To)” value stood at 43 NTU, the “Turbidity (NTU) OD (T1 hr)” value turned out to be 47 NTU, the “Turbidity (NTU) OD (T18)” value was found to be 675 NTU and the “Turbidity (NTU) OD (T24)” value is recorded as 728 NTU. In addition, under “sulfate”, the “Turbidity (NTU) OD (T48)” value was 758 NTU, the “Change … (delta NTU) OD (T1 hr)” value is recorded as 4 delta NTU, the “Change … (delta NTU) OD (T18)” value was found to be 632 delta NTU and the “Change … (delta NTU) OD (T24)” value is reported as 685 delta NTU. Further, the “Change … (delta NTU) OD (T48)” value (sulfate) turned out to be 715 delta NTU.
`CCCCCCCCCCCCOS(=O)(=O)[O-].[Na+]` [Example 46]: where the note is “sulfate”, the “Turbidity (NTU) OD (To)” value stood at 37 NTU, the “Turbidity (NTU) OD (T1 hr)” value turned out to be 42 NTU, the “Turbidity (NTU) OD (T18)” value was 495 NTU and the “Turbidity (NTU) OD (T24)” value amounted to 610 NTU. For the same molecule, where the note is “sulfate”, the “Turbidity (NTU) OD (T48)” value is on record as 605 NTU, the “Change … (delta NTU) OD (T1 hr)” value was 5 delta NTU, the “Change … (delta NTU) OD (T18)” value worked out at 458 delta NTU and the “Change … (delta NTU) OD (T24)” value is 573 delta NTU. Also, under “sulfate”, the “Change … (delta NTU) OD (T48)” value is listed as 568 delta NTU.
On to `O=C([O-])CC(O)(CC(=O)[O-])C(=O)[O-].O=C([O-])CC(O)(CC(=O)[O-])C(=O)[O-].[Zn+2].[Zn+2].[Zn+2]` [Example 7, zinc citrate], for which the “Change in Turbidity from T0 (delta NTU) T 96 Hours” value was determined as 1007.2 delta NTU, the “Change in Turbidity from T0 (delta NTU) T 18 hours” value turned out to be 948.2 delta NTU, the “Change in Turbidity from T0 (delta NTU) T 24 hours” value was 949.2 delta NTU and the “Change in Turbidity from T0 (delta NTU) Time 1 Hr” value was determined as 20.7 delta NTU. The “Turbidity (NTU) T 96 Hours” value is reported as 1051 NTU, the “Turbidity (NTU) T 18 hours” value is given as 992 NTU, the “Turbidity (NTU) T 24 hours” value was found to be 993 NTU and the “Turbidity (NTU) Time 1 Hr” value is listed as 64.5 NTU. Moreover, the “Turbidity (NTU) Time zero” value stood at 43.8 NTU.

For the origin of these results see US20080292673A1, “Bioactive agrichemical compositions and use therreof” (priority 2007, published 2008).
